Data from patent EP1622888B1, “BENZO-, NAPHTHO- AND PHENANTHROCHROMENES SUBSTITUTED WITH AN ARYLAMINE GROUP WITH PHOTOCHROMIC PROPERTIES” (Corning Incorporated, priority 2003, dated 2004).

Assay: Photochromic properties: UV-visible absorption of THF solutions before and after exposure to a UV source at 365 nm
Format: physicochemical
Conditions: 5 mg in 50 ml of THF, optical path of 1 cm, after exposure to a UV source at 365 nm
Method: The photochromic properties of said compounds (1) to (6) and (C1) to (C5) were evaluated.
Said compounds were dissolved, at the rate of 5 mg in 50 ml of THF, and the UV-visible absorptions (optical path of 1 cm) is then measured before and after exposure to a UV source at 365 nm. The observation of the tints and the intensities developed is done by placing the solutions in the sun or before a solar simulator.

Row | λMAX VIS: λ of the band of the lowest energy in the field of the visible spectrum of the compound after exposure [nm] | λVIS1: λ of the band of highest energy in the field of the visible spectrum of the compound after exposure [nm] | Compound
1 | 452 |  | COc1cc2c3c(c4c(c2cc1OC)CCc1ccccc1-4)OC(c1ccccc1)(c1ccc(N(C)C)c(C)c1)C=C3 (centres unmarked) [(1)]
2 | 548 | 429 | COc1ccc(C2(c3ccccc3)C=Cc3c4c(c5ccc(OC)cc5c3O2)-c2ccccc2CC4)cc1 (centres unmarked) [(C4), reference compound]
3 | 465 |  | COc1cc2c3c(c4c(c2cc1OC)CCc1ccccc1-4)OC(c1ccccc1)(c1ccc(N(C)C)c(-c2ccccc2)c1)C=C3 (centres unmarked) [(2)]
4 | 561 | 443 | COc1ccc(C2(c3ccc(N(C)C)c(Br)c3)C=Cc3c4c(c5cc6c(cc5c3O2)OCC6)-c2ccccc2CC4)cc1 (centres unmarked) [(6)]
5 | 441 |  | COc1ccc(C2(c3ccccc3)C=Cc3c(c4c(c5cc(OC)c(OC)cc35)CCc3ccccc3-4)O2)cc1 (centres unmarked) [(C2), reference compound]
6 | 507 |  | COc1cc2c3c(c4c(c2cc1OC)CCc1ccccc1-4)OC(c1ccccc1)(c1ccc(N(C)C)cc1)C=C3 (centres unmarked) [(C1), reference compound]
7 | 562 | 469 | COc1ccc2c3c(c4c(c2c1)OC(c1ccccc1)(c1ccc(N(C)C)c(-c2ccccc2)c1)C=C4)CCc1ccccc1-3 (centres unmarked) [(4)]
8 | 446 |  | COc1cc2c3c(c4c(c2cc1OC)CCc1ccccc1-4)OC(c1ccccc1)(c1ccc(NC(C)=O)cc1)C=C3 (centres unmarked) [(C5), reference compound]
9 | 556 | 435 | COc1ccc2c3c(c4c(c2c1)OC(c1ccccc1)(c1ccc(N(C)C)c(C)c1)C=C4)CCc1ccccc1-3 (centres unmarked) [(3)]
10 | 563 | 444 | COc1ccc(C2(c3ccc(N(C)C)c(C)c3)C=Cc3c4c(c5cc6c(cc5c3O2)OCC6)-c2ccccc2CC4)cc1 (centres unmarked) [(5)]
11 | 584 | 482 | COc1ccc2c3c(c4c(c2c1)OC(c1ccccc1)(c1ccc(N(C)C)cc1)C=C4)CCc1ccccc1-3 (centres unmarked) [(C3), reference compound]
